No end group written: not given here.
Columns and labels:
[1] = molecular target: T1, adrenal ACTH receptors such as MC-2R (explanted adrenal membrane) (Mus musculus, UniProt Q64326+Q9D159); assay: in vitro Serum-free Adrenal Competitive Binding Assay (Example 3); conditions: cold peptide at 10 nM, 100 nM, 1000 nM; CPM; FIG. 3
T1 construct: the adrenal halves were macerated or otherwise dissociated using Dounce Homogenizer to form a membrane fraction; from tissue; host or cells: mouse adrenal glands (explanted, homogenised to a membrane fraction)
Description: ACTH analog compounds that bind to adrenal membrane with a greater affinity than endogenous unmodified ACTH, and are able to displace unmodified ACTH can be identified using an in vitro Serum-free Adrenal Competitive Binding Assay (Example 3). […] A higher CPM level indicates the presence of greater amounts of the radiolabelled compound. […] Column 220 indicates the level of radio-labeled unmodified mACTH(1-24) detected after combining the explanted adrenal membrane with only the radio-labeled mACTH(1-24) for 2 hours (no competitive binding). Columns 230, 240, and 250 show the results of competitive binding assays for binding of non-radio-labeled (“cold”) mACTH(1-24) to displace the radio-labeled mACTH(1-24) from the explanted adrenal membrane (measured in column 220) by competitive binding to receptors such as MC-2R on the adrenal membrane. […]
ACTH analogs with the ability to bind adrenal receptors with a greater affinity than compounds with known adrenal binding activity (preferably ACTH) can also be identified by performing an in vitro Adrenal Competitive Binding Assay, whereby measurement of the reduction in the amount of the radiolabelled adrenal-binding compound (e.g., ACTH) is measured at various concentrations of non-radio-labeled ACTH analog test compound in a medium containing explanted adrenal membrane. […]

[2] = system: explanted mouse adrenal membrane (adrenal halves); assay: in vitro Serum-free Adrenal Inhibition Assay (Example 4); type: cell-based; conditions: FIG. 4
Procedure: A series of separate in vitro Serum-Free Adrenal Corticosteroid Inhibition Assay were performed to identify ACTH analogs that inhibit ACTH-induced adrenal hormone production in vitro. The concentration of corticosterone was measured according to the procedure of Example 4 in a serum-free culture medium containing explanted adrenal membrane and unmodified ACTH, AT814 ACTH analog (SEQ ID NO:20), or a combination of ACTH and AT814 at 100 ng/mL each. […] Corticosterone levels were taken at 2.0 hours after the adrenal membrane was placed in the serum free M199 medium, and each corticosterone level in Table 5 is an average of five samples.
The in vitro Serum-free Adrenal Inhibition Assay was performed according the following method. First, adrenals were removed from mice, dissected free of fat, and cut in half. See Costa, J L, et al., “Mutational analysis of evolutionarily conserved ACTH residues,” Gen Comp Endocrinol. 136:12-16 (2004); and Weber, M M, et al., “Postnatal overexpression of insulin-like growth factor II in transgenic mice is associated with adrenocortical hyperplasia and enhanced steroidogenesis,” Endocrinology 140:1537-1543 (1999), incorporated herein by reference.
Second, each adrenal half was placed into an individual well of a 4-well dish, one dish per mouse. Adrenal halves were incubated at 5% CO2, 37° C., in 0.5 ml serum-free medium (M199; Invitrogen) for 30 minutes to equilibrate.
Third, medium was removed and replaced by 0.5 ml M199 containing ACTH, AT814, or both, at 100 ng/ml each; controls had no peptides added.
Fourth, after 2 hours of incubation, the medium was removed, pooled for all four halves from each mouse, and assayed by corticosterone using standard RIA methods. corticosterone was determined by competitive radioimmunoassay (^125I RIA kit; ICN, Costa Mesa, Calif.) according to the manufacturer's recommendations. One microliter of serum was used per assay sample. Samples were run in duplicates.

T1 sequence (Q64326 whole entry): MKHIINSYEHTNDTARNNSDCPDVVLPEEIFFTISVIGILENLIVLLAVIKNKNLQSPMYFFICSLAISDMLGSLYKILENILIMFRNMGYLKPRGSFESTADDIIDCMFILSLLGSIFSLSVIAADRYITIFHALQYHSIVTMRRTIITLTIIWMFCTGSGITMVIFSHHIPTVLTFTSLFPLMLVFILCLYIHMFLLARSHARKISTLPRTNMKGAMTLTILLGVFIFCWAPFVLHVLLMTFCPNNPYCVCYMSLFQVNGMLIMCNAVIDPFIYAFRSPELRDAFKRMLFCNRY
T1 sequence (Q9D159 whole entry): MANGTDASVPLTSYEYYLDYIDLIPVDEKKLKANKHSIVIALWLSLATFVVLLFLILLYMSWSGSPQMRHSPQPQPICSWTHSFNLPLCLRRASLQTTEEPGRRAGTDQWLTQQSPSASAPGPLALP

**Q.** For “N-Ser^1-Tyr-Ser-Met-Glu^5-His-Phe-Arg-Trp-Gly^10-Lys-Pro-Val-Gly-Lys^15-Arg-Ala-Ala-Trp-Val^20-Lys-Val-Tyr-Pro-Ac (SYSMEHFRWGKPVGKRAAWVKVYP; not fully specified; printed as N-Ser1-Tyr-Ser-Met-Glu5-His-Phe-Arg-Trp-Gly10-Lys-Pro-Val-Gly-Lys15-Arg-Ala-Ala-Trp-Val20-Lys-Val-Tyr-Pro-Ac) [AT814]”, which “displacement of radio-labeled mACTH(1-24) from explanted adrenal membrane” value [1] is on record?
**A.** displacement of the radio-labeled mACTH(1-24)

**Q.** And the “corticosterone induction by analog alone” value ([2]; AT814 alone in M199 serum-free medium)?
**A.** only a negligible amount of corticosterone induction

**Q.** What about the “reduction of corticosterone induction compared to unmodified ACTH alone” value ([2]; equal amounts of AT814 and unmodified ACTH) of the same substance?
**A.** about 65%
